According to patent publication US9040713B2, “Methods of managing blood sugar levels and compositions related thereto” (EMORY UNIVERSITY, priority 2010, dated 2015):

Tests used:
[1] = tested on: 3T3-L1 adipocytes; test: [3H] 2-deoxyglucose transport in 3T3-L1 adipocytes; type: cell-based, mouse; settings: for glucose uptake after depletion of IR: siRNA against IR
Description: NIH 3T3-L1 preadipocytes and MEFs were grown in standard media. MEF were continuously passed in standard media to generate spontaneously immortalizedfibroblasts. […] 3T3-L1 adipocytes were reseeded into 12-well plates 10 to 12 days after differentiation. […] The transport reaction was initiated by adding 2-deoxyglucose (final 100 uM) with [3H] 2-deoxyglucose (0.2 μCi/well). After a 10 min incubation period, cells were washed three times with ice-cold PBS, solubilized in 1% SDS, 1M NaOH. After neutralization, radioactivity was measured by scintillation counting

[2] = tested on: C57BL/6J mice; test: Blood glucose level test in C57BL/6J mice; type: in vivo, mouse; settings: for time until decrease of blood glucose: DDN 20 mg/kg oral, insulin 1 U/kg i.p.
Description: (A) DDN reduces blood glucose in C57BL/6J mice. […] Blood glucose was monitored before and after dosing at various time points as indicated (*: P<0.05, **: P<0.01; ***: P<0.001, n=10-13, Two-way ANOVA vs vehicle). (B) DDN provokes IR phosphorylation and its downstream signaling in C57BL/6J mice. Three month-old C57BL/6J mice were starved for 12 h and then orally administrated with vehicle (0.5% methylcellulose), DDN (20 mg/kg) or 2NH2-NQ (20 mg/kg). Cell lysates were prepared from liver and muscle tissues collected at 3, 4, and 5 h after drug administration and analyzed by immunoprecipitation and immunoblotting. (C) DDN quickly activates IR phosphorylation and its downstream signaling. Three-month-old C57BL/6J mice were starved for 12 h and then injected with vehicle, 5 mg/kg DDN or 5 mg/kg 2NH2-NQ through vena cava. After 5 min, the liver was collected and analyzed by immunobloting using specific antibodies.
(§1) (A) 4524-E7 provokes IR phosphorylation in various tissues of mice. Three-month-old C57BL/6J mice were starved for 12 h and then dosed with vehicle (0.5% methylcellulose) or 4524-E7 (20 mg/kg). Cell lysates from liver, muscle, and WAT were prepared at 3, 4, and 5 h after drug administration and analyzed by immunoblotting. (B) Basal and insulin-stimulated hepatic glucose production rates were measured by hyperinsulinemic-euglycemic clamp. […] (C) Hypoglycemic effect of 4524-E7 in C57BL/6J mice. C57BL/6J mice were starved for 12 h and then orally administrated with vehicle (0.5% methylcellulose) or 4524-E7 (5 mg/kg). Blood glucose was monitored at different time points as indicated (n=8, *: P<0.05, two-way ANOVA). (D) Hypoglycemic effect in db/db mice. db/db mice were starved for 12 h and then orally injected with vehicle (0.5% methylcellulose) or 4524-E7 (5 mg/kg). Blood glucose was monitored at different time points as indicated (n=5, *: P<0.05, two-way ANOVA). (E) Glucose tolerance test in ob/ob mice. The mice were starved for 12 hours and then orally administrated with vehicle or 4524-E7 (5 mg/kg). A bonus of glucose (2 gm/kg) was injected intraperitoneally 1 hour later. Blood glucose was then measured at 30 min intervals (n=13, *: P<0.05; **: P<0.01, two-way ANOVA).
After a 12 h fasting, C57B5L/6J and db/db mice were bled from the tail vein for a baseline measurement with a glucometer (Accu-Chek; Roche Diagnostics, Indianapolis, Ind.). Afterward, animals were orally administered 5 mg/kg compound in 0.5% methylcellulose through a feeding needle. Blood glucose levels were measured at hourly intervals over 5 h.

[3] = tested on: db/db mice; test: Blood glucose level test in db/db mice; type: in vivo, mouse; settings: for duration of blood glucose lowering effect: DDN 5 mg/kg oral, insulin 1 U/kg i.p.
Description: Three-month-old mice were starved for 12 h and then orally administrated with vehicle (0.5% methylcellulose) or DDN (5 mg/kg). Cell lysates were prepared from liver and muscle tissues collected at 1 and 2 h after drug administration and analyzed by immunoprecipitation and immunoblotting. […] Three-month-old mice were starved for 12 h and then orally administrated with vehicle (0.5% methylcellulose) or DDN (5 mg/kg). Cell lysates were prepared from liver and muscle tissues collected at 1 and 2 h after drug administration and analyzed by immunoprecipitation and immunoblotting. (C) Hypoglycemic function of DDN in db/db mice. The animals were starved for 12 h and then orally injected with vehicle (0.5% methylcellulose) or DDN (5 mg/kg). […] Blood glucose was monitored before and after drug administration at 1-hour intervals (*: P<0.05, **: P<0.01, n=5, Two-way ANOVA vs vehicle). (D) DDN improves the glucose tolerance in ob/ob mice. The animals were starved for 12 h and then orally dosed with vehicle (0.5% methylcellulose) or DDN (5 mg/kg). […] A bonus of glucose (2 gm/kg) was injected intraperitoneally 1 hour later. Blood glucose was measured at 30-min intervals (*: P<0.05, **:P<0.01, n=5, Two-way ANOVA vs vehicle control).
as §1
After a 12 h fasting, C57B5L/6J and db/db mice were bled from the tail vein for a baseline measurement with a glucometer (Accu-Chek; Roche Diagnostics, Indianapolis, Ind.). […] Blood glucose levels were measured at hourly intervals over 5 h.

[4] = tested on: ob/ob mice; test: Intraperitoneal glucose tolerance test in ob/ob mice; type: in vivo, mouse; settings: 5 mg/kg oral, glucose 2 g/kg i.p. 1 hour later
Description: Three-month-old mice were starved for 12 h and then orally administrated with vehicle (0.5% methylcellulose) or DDN (5 mg/kg). Cell lysates were prepared from liver and muscle tissues collected at 1 and 2 h after drug administration and analyzed by immunoprecipitation and immunoblotting. […] Three-month-old mice were starved for 12 h and then orally administrated with vehicle (0.5% methylcellulose) or DDN (5 mg/kg). Cell lysates were prepared from liver and muscle tissues collected at 1 and 2 h after drug administration and analyzed by immunoprecipitation and immunoblotting. (C) Hypoglycemic function of DDN in db/db mice. […] Blood glucose was monitored before and after drug administration at 1-hour intervals (*: P<0.05, **: P<0.01, n=5, Two-way ANOVA vs vehicle). […] Blood glucose was measured at 30-min intervals (*: P<0.05, **:P<0.01, n=5, Two-way ANOVA vs vehicle control).
(A) 4524-E7 provokes IR phosphorylation in various tissues of mice. […] Cell lysates from liver, muscle, and WAT were prepared at 3, 4, and 5 h after drug administration and analyzed by immunoblotting. (B) Basal and insulin-stimulated hepatic glucose production rates were measured by hyperinsulinemic-euglycemic clamp. […] Blood glucose was monitored at different time points as indicated (n=8, *: P<0.05, two-way ANOVA). […] Blood glucose was monitored at different time points as indicated (n=5, *: P<0.05, two-way ANOVA). […]

[5] = target: IR (Homo sapiens, UniProt P06213); test: Insulin competition assay (FITC-insulin, flow cytometry); type: binding; parameters: expressed in transfected cells; host or cells: CHO (CHO-IR, gift from Dr. Nicholas Webster, UCSD); settings: CHO-IR cells
Sequence of IR (P06213 763-1382 limits assumed): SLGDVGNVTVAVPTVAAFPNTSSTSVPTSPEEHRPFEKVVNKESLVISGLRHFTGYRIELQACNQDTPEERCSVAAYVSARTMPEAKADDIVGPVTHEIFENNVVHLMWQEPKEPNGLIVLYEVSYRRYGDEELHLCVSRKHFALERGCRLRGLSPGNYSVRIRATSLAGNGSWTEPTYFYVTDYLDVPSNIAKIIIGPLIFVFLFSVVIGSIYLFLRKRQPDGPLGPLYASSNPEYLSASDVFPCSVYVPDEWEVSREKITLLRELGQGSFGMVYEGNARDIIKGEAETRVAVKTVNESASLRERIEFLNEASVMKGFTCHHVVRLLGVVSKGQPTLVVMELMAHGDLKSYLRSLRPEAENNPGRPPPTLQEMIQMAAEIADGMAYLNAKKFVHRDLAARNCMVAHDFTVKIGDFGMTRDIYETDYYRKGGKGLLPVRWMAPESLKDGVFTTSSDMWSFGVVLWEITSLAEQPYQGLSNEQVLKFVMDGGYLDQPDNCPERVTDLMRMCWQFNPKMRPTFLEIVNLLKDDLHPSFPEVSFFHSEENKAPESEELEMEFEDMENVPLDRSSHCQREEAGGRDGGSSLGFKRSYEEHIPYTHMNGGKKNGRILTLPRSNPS
Sequence of IR (P06213 28-758 limits assumed): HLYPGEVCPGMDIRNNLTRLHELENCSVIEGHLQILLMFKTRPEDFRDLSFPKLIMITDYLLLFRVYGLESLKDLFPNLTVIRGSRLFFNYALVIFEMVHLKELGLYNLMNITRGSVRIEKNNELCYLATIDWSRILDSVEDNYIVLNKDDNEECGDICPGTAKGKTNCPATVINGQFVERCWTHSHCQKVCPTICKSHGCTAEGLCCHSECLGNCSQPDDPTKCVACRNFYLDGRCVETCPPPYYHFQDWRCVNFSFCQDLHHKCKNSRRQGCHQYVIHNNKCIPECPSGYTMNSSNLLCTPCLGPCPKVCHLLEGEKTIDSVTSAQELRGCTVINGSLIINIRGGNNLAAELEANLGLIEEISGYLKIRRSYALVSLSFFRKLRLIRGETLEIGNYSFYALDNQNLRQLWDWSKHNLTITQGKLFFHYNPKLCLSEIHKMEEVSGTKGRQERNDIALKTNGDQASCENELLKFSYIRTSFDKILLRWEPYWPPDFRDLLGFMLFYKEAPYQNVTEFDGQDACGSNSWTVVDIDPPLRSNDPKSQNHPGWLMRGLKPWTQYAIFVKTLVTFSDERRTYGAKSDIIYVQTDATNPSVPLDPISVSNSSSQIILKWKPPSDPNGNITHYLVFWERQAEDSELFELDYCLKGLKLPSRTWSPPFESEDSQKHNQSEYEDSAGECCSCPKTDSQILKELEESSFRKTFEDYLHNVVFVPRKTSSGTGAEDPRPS
Description: Cells were washed three times, acquired on a FACScan, and the mean channel fluorescence (MCF) of bell-shaped histograms was analyzed using the CellQuest program.
Cells were washed three times, acquired on a FACScan, and the mean channel fluorescence (MCF) of bell-shaped histograms was analyzed using the FlowJ program.

Compound | glucose uptake as compared to control ([1]; 5 μM, 30 min) | lowest concentration significantly elevating glucose uptake ([1]; 30 min) [µM] | glucose uptake in combination with insulin ([1]; 4524-E7 plus 10 nM insulin, versus the two agents alone) | glucose uptake after depletion of IR [1] | blood glucose ([2]; 5 mg/kg single oral administration, 3˜4 h after) | blood glucose ([3]; 5 mg/kg oral, one hour after administration) | glucose tolerance [4] | competition with FITC-insulin for IR binding (shift of fluorescent peak) ([5]; 10 nM FITC-insulin, unlabelled insulin 1 μM) | glucose uptake in combination with insulin ([1]; 5 nM DDN plus 5 nM insulin) | 3H-deoxyglucose uptake ([1]; DDN 0.1, 0.25, 0.5 μM, 30 min) | blood glucose as compared to vehicle control ([2]; 20 mg/kg oral, 12 h starved) | time until decrease of blood glucose [2] | blood glucose as compared to vehicle control ([3]; 5 mg/kg oral, one h after administration) | duration of blood glucose lowering effect [3] | competition with FITC-insulin for IR binding (shift of fluorescent peak) ([5]; 100 nM FITC-insulin, unlabelled insulin 5 μM) | 3H-deoxyglucose uptake ([1]; 5 nM, alone)
O=C1c2ccccc2C(=O)C2SC(Nc3ccc(Cl)cc3)=NC12 (centres unmarked) [4524-E7, 2-((4-chlorophenyl)amino)naphtho[2,3-d]thiazole-4,9(3aH,9aH)-dione] | nearly quadrupled | 1 | additively escalated | substantially diminished | 70 % of basal level | about 50 % of the initial value | significant improvement of glucose tolerance | no significant change of the shifted peak position | – | – | – | – | – | – | – | –
CC(=O)Oc1ccc(OC(C)=O)c2c1C(=O)C(Cl)=C(Cl)C2=O [DDN, 5,8-diacetyloxy-2,3-dichloro-1,4-naphthoquinone] | – | – | – | – | – | – | significant improvement in glucose tolerance | – | further increased | escalated 3H-deoxyglucose uptake in a dose-dependent manner | significantly reduced blood glucose | 3 h | lower blood glucose was found in db/db mice | sustain till the end of the experiment | No significant change of the shifted peak position | –
insulin: insulin, used as positive control | – | – | – | substantially diminished | – | – | – | – | – | – | – | Thirty min | – | 2 h | – | significantly increased
